Values of other authors, collected in US20090030057A1, “Pharmaceutical composition of telmisartan” (priority 2005, published 2009).
Read-outs that look alike come from different tables or passages of the source.

For `CCCc1nc2c(C)cc(-c3nc4ccccc4n3C)cc2n1Cc1ccc(-c2ccccc2C(=O)O)cc1` [Telmisartan, 4′-[2-n-propyl-4-methyl-6-(1-methylbenzimid-azol-2-yl)benzimidazol-1-ylmethyl]biphenyl-2-carboxylic acid], the solubility (in a strong acid (with the exception of hydrochloric acid)) is listed as “sparingly soluble”, the solubility (in a strong base) is listed as “soluble” and the solubility (in hydrochloric acid) is listed as “insoluble”. The solubility (in water or an aqueous solution in the pH range of 3 to 9) was “practically insoluble”.
